According to patent publication EP1492876B1, “CATIONIC AMPHIPHILES FOR INTRACELLULAR DELIVERY OF THERAPEUTIC MOLECULES, COMPOSITION, PROCESS AND USE THEREOF” (COUNCIL OF SCIENTIFIC AND INDUSTRIAL RESEARCH, priority 2002, dated 2003):

Legend:
[1] = test system: DNA; assay: Lipid:DNA interactions assay (ethidium bromide exclusion, fluorescence); type: binding; settings: EtBr: pCMV β-gal complex titrated with lipid, TE buffer pH 8.0; Figure 2
Source text: Lipid:DNA Interactions Assay. Intercalation-induced fluorescence increase and competition with cationic lipids to bind to DNA has made Ethidium Bromide (EtBr) an excellent tool to study cationic lipid-DNA interactions. To assess the representative lipid:DNA interactions for the cationic lipids of the present invention, we have titrated the EtBr: pCMV β-gal complex with increasing amounts of cationic lipids 1-5.
The extent of Et.Br binding to the DNA was monitored by the changes in the fluorescence. EtBr fluorescence was monitored in Hitachi 4500 fluorimeter by setting the excitation wavelength at 518 nm and emission wavelength at 585 nm. To one ml of TE buffer (pH 8.0), 0.78 nmoles of DNA and 2.5 nmoles of EtBr were added. The change in fluorescence was monitored after adding small volumes of lipids 1-5 to the EtBr:DNA complex. Arbitrary fluorescence values were recorded after allowing sufficient time for equilibration. […] Percent fluorescence was calculated considering the fluorescence value in the absence of lipid as 100.

[2] = MTT based viability assay (toxicity assay); type: cell-based; settings: monkey; COS-1 cells, 3:1 charge ratio
Procedure: Toxicity Assays. An MTT based viability assay was performed to assess the cytotoxicity of lipids 1-5 at various lipid:DNA charge ratios with COS-1 cells as described previously (Banerjee, R. et al. 1999). […] For lipids 1, 4 and 5 at a 3:1 charge ratio the toxicity varied from 15-25 % of the treated cells. The toxicity of lipid 2 (with shorter alkyl chains) may originate from its probable detergent-like cell-lysing activity.

[3] = test system: COS-1 cells; assay: Cell transfection (β-galactosidase reporter gene activity); type: cell-based; settings: 0.15 µg plasmid DNA, lipid 0.05 - 4.3 nmoles, reporter gene activity after 48 h, Figure 1, compared with DMRIE
Procedure: Similar examples of plasmid include PGL-2 and PGL-3 of Promega and others.
Cell Transfection. COS-1 cells were seeded at a density of 15,000 cells/well in a 96-well plate eighteen hours before the transfection. 0.15 µg of plasmid DNA was complexed with varying amount of lipid (0.05 - 4.3 nmoles) in 13 µl of plain DMEM medium for 30 min. The charge ratios were varied from 0.1 : 1 to 9 : 1 (+/-) over this range of the lipid. The complex was diluted to 100 µl with plain DMEM and added to the wells. After 3 h of incubation, 100 µl of DMEM with 10 % FCS was added to the cells. The medium was changed to 10 % complete medium after 24 h and the reporter gene activity was estimated after 48 h. The cells were washed twice with PBS and lysed in 50 µl of lysis buffer (0.25 M Tris.HCl, pH 8.0 and 0.5% NP40). Care was taken to ensure complete lysis. The β-galactosidase activity per well was estimated by adding 50 µl of 2X substrate solution (1.33 mg/ml of ONPG, 0.2 M sodium phosphate, pH 7.15 and 2 mM magnesium chloride) to the lysate in a 96-well plate. Absorption at 405 nm was converted to β-galactosidase units by using calibration curve constructed with pure commercial β-galactosidase enzyme. The values of β-galactosidase units in replicate plates assayed on the same day varied by less than 30 %. […]

Compound	lipid:DNA interaction (ability to exclude ethidium bromide from DNA) [1]	cytotoxicity [2]	in vitro transfection efficiency [3]
CCCCCCCCCCCCCCCCCC[N+]1(CCCCCCCCCCCCCCCCCC)CC(O)C(O)C1 (stereo not drawn) [compound 4]	interact poorly with DNA	15 to 25%	
CCCCCCCC/C=C\CCCCCCCC[N+]1(CCCCCCCCCCCCCCCCCC)CC(O)C(O)C1 (stereo not drawn) [compound 5]	interact poorly with DNA	15 to 25%	
CCCCCCCCCCCCCCCC[N+]1(CCCCCCCCCCCCCCCC)CC(O)C(O)C1 (stereo not drawn) [compound 3]	interact with DNA equally well up to lipid:DNA ratio of 1.25 or so		
CCCCCCCCCCCCCC[N+]1(CCCCCCCCCCCCCC)CC(O)C(O)C1 (stereo not drawn) [compound 2]	interact with DNA equally well up to lipid:DNA ratio of 1.25 or so		comparable to or better than that of DMRIE
CCCCCCCCCCCC[N+]1(CCCCCCCCCCCC)CC(O)C(O)C1 (stereo not drawn) [compound 1]	interact poorly with DNA	15 to 25%	
